Data as given in patent US7981623B2, “Repressor of skeletal muscle differentiation, nucleic acids coding therefor and the use thereof in diagnosis and therapy” (Universitaetsklinikum Freiburg, priority 2002, dated 2011).
Entries after “also recorded” stand apart in the source; their conditions may differ.

Assays:
[1] = test system: androgen receptor (hsAR); experiment: GRIM1-AR protein-protein interaction (pulldown, co-IP, yTHS); type: binding, human
Method: Further functional characterization of the interaction domains within GRIM1 was carried out by pulldown analyses with the expressible fragments of GRIM1.

[2] = test system: core histones H4, H2B, H2A and H3; experiment: GST pulldown with core histones; type: binding
Method: A protein is expressed as GST fusion protein in E. coli, immobilized on a GST-binding carrier material, and incubated with the potential interactant which is usually radiolabeled. In the subsequent washing steps, proteins which interact only weakly or not at all are washed off the carrier material or the carrier material-bound GST fusion protein. The amount of associated interactant can be determined by fractionation of the proteins by SDS-PAGE and subsequent autoradiography. To check the specificity of interaction between potential interactant and GST fusion protein, the interaction with GST alone is examined.
Aliquots of GST-GRIM1 fragments or GST-containing E. coli crude lysate are mixed in each case with 30 μl of glutathione(GSH)-Sepharose and incubated on a bohemian wheel at 4° C. for 1 h. The GSH-Sepharose is pelleted by centrifugation (1′ at 2000 rpm) and washed twice in pulldown buffer. The pellet is then resuspended in 500 μl of pulldown buffer and incubated with the in vitro translated, […] potential interactant at 4° C. on the bohemian wheel for 1 h. […]

[3] = test system: differentiating C2C12 skeletal muscle cells; experiment: GRIM1 relocalization in differentiating C2C12 cells under signal pathway inhibitors; type: cell-based, mouse; settings: day 0 to day 6 in differentiation medium; Gö6850 1 μM, LY294002 10 μM, Ro31-8220 0.5 μM, PD98059 10 μM, fasudil 10 μM
Method: The cells were cultured in the media recommended by the ATCC on 15 cm cell culture dishes under sterile conditions. Cells are subcultured in a ratio of 1:5 to 1:20 every two to three days and kept at a maximum of 60% confluence. Old medium is removed, and the cells are washed with PBS buffer and treated with trypsin/EDTA solution (0.25% trypsin, 0.04% EDTA in PBS buffer) until they are detached from the culture dish. The cells are isolated in fresh medium and subcultured on new subculture dishes. • PBS buffer: 137 mM NaCl; 2.7 mM KCl; 8 mM Na2HPO4; 1.8 mM KH2PO4 • Media used: DMEM (Gibco BRL), 100 IU penicillin G/ml, 100 μg/ml streptomycin, 2 mM glutamine, 10% fetal calf serum. As differentiation medium for C2C12 and L6 cells, 10% FCS was replaced by 2% horse serum.
Cells are seeded in the desired cell density on autoclaved slides and fixed on the support with 5% paraformaldehyde for 10′. Cell membranes are made permeable for antibodies by incubation in 0.2% TritonX100 for 10′. Before the incubation with the primary antibodies, the cells are blocked in 0.2% gelatin (in PBS) at RT for 1 h. Anti-hsGRIM1 antibodies are diluted 1:500 in 0.2% strength gelatin solution and incubated at RT for 1 h. After washing three times with PBS for 5′ each time, the respective fluorochrome-coupled secondary antibody is added 1:2000 in 0.2% gelatin solution and incubated in the dark at RT for 30′. After the washing steps, the nucleus is counterstained with DAPI (1 μg/ml PBS, Roche Diagnostics) and the cells are finally washed twice in 0.1% TritonX100 in order to minimize autofluorescences. The slides are preserved in Fluoromount M (Southern Biotechnology Associates) and analyzed using a fluorescence microscope.
Treatment of differentiating C2C12 skeletal muscle cells with various inhibitors of central signal transduction pathways have no effect on relocalization or the number of nuclear speckles of GRIM1 within the investigated differentiation from day 0 to day 6 after addition of the differentiation medium. Tested inhibitors: pan-HDAC inhibitors TSA and sodium butyrate, protein kinase inhibitors Gö6850 (specific PKC inhibitor, 1 μM), LY294002 (specific P13kinase inhibitor, 10 μM), Ro31-8220 (PKC broad-spectrum inhibitor, 0.5 μM), PD98059 (MEK1 inhibitor, 10 μM), fasudil (Rock kinase inhibitor, 10 μM), SB203580 (p38α/β inhibitor). Overacetylation and blockade of central signal cascades had drastic morphologically visible consequences for some of the cells, but there was no effect on relocalization or the number of detectable GRIM1 speckles.

[4] = test system: Gal4-RE-controlled complex and synthetic minimal reporter constructs; experiment: Gal4-DBD fusion repression, transient transfection luciferase reporter; type: cell-based; settings: for transcriptional repression: Gal4-DBD context, all reporter systems described; for repression potential as Gal4-DBD fusion (in words): transient transfections; for effect of HDAC inhibitor on Gal-GRIM1 repression: trichostatin A 300 nM, sodium butyrate 5 mM
Description: To determine the transcriptional properties of hsGRIM1 proteins in eukaryotic cells, pCMX-hsGRIM1 expression plasmids were cotransfected with luciferase (LUC) reporter plasmids. Expression of the particular hsGRIM1 protein in a pCMX expression plasmid is under the control of the cytomegalovirus promoter. Luciferase expression in the LUC reporter plasmids used is controlled either by the thymidine kinase (TK) promoter, an E1b minimal promoter (TATA box), or by the respectively indicated complex promoters.
Transfection takes place by the calcium phosphate method or by the DOTAP liposomes method (Roche Diagnostics, product information). Unless otherwise indicated, 10^5 cells/well were seeded in 1 ml of culture medium in 12-well dishes. In the CaPO4 method, the plasmid DNA to be transfected is coprecipitated with calcium phosphate, and the precipitate is distributed to the cells capable of division. The calcium phosphate precipitate is prepared by preparing the mixture indicated below for duplicates in 12-well dishes:
While agitating (vortexing), 80 μl of 2xBES buffer are slowly and uniformly added dropwise to this mixture. The precipitate is incubated at RT for 10 min and distributed uniformly to the cells (80 μl per well) and, after 8 hours, removed by washing with PBS. The cells are incubated in fresh culture medium for a further 18 to 24 h. • BES buffer (2×): 50 mM N,N-bis[2hydroxyethyl]-2-aminoethanesulfonic acid; 280 mM NaCl; 1.5 mM Na2HPO4.2H2O; pH 6.95
Transiently transfected cells are washed once with PBS and lyzed by adding 50 μl of reporter lysis buffer (Promega) and further disrupted by freezing at −80° C. Cell lysates are transferred into Eppendorf reaction vessels, and cell detritus is pelleted at 14 000 rpm for 2′. 10 μl portions of the lysates are pipetted into 96-well microtiter plates to determine the luciferase activity. The luciferase assay took place in an EG&G Berthold Microluminomat. 40 μl of luciferase assay buffer are injected into the 10 μl of cell lysate, and the resulting chemiluminescence is determined in a time integral of 10″. The measured values for the luciferase activity are related to the amount of protein present in the cell lysate. For this purpose, 3 μl portions of the lysates are mixed in 96-well microtiter plates with 100 μl of Bradford assay reagent (BioRad) diluted 1:5 with H2O, and the absorption of the solution is determined at 595 nm. Relative luciferase activities are found from the ratio of the luciferase activity to the protein absorption. • Luciferase assay buffer: 200 mM tricine; 1.07 mM (MgCO3).4Mg(OH)2; 0.1 M MgSO4, 10 mM EDTA (pH 8.0); 33 mM DTT; […]; […] acetyl-coenzyme A; […] glowworm luciferin.
All the described data were obtained with the hsGRIM1 clone. […] Gal-GRIM1 represses expression of reporter genes both of Gal4-RE-controlled complex and synthetic minimal reporter constructs. The repression potential of GRIM1 is distinctly greater for example compared with the corepressor Gal-SuN-CoR. In these experiments, the appropriate corepressors are transiently expressed as heterologous Gal4-DBD fusion proteins in cells. The repression capacity on various synthetic promoter-reporter constructs compared with equal quantities of transfected wild-type Gal4-DBD is determined by luciferase reporter gene expression (FIG. 8).
Gal-GRIM1 is equally strong as a repressor as a large number of described corepressors such as, for example, Gal-HDAC1-10, Gal-CBF1, Gal-Alien and represses only insignificantly weaker than Gal-N-CoR-RD or Gal-SMRT-RD. The repression potential of Gal-GRIM1 was investigated in conjunction with the complex Gal43x-tk-LUC and Gal-MMTV-LUC promoter/reporter constructs and in conjunction with the minimal promoter/reporter constructs Gal5x-E1b-TATA-box and Gal3x-βglobin-TATA-LUC. […]

[5] = test system: nuclear export of GFP-GRIM1 (exportin1/Crm1); experiment: Nuclear export of GFP-GRIM1 under leptomycin B; type: cell-based; settings: 20 nM for 6 h before cell harvesting
[6] = test system: acetylation of core histones by p300; experiment: INHAT assay (in vitro acetylation of histones by p300); type: biochemical; settings: core histones H3, H2A, H2B and H4
Method: INHAT assays were carried out as described by Eckner et al. and by Seo et al. (Eckner et al., 1996, Genes and Development 10 (19), pp 2478-2490, Seo et al., 2001, Cell 104 (1), pp 119-130). Histones or histone mixtures are preincubated with the appropriate peptides in a total of 50 μl of HAT buffer, then mixed with bacterially expressed p300 HAT domains and 0.5 μCi of ^14C-acetyl-coenzyme A, and incubated at 30° C. and 1000 rpm for 2 h. Reactions are stopped by adding SDS Laemmli buffer. Proteins are fractionated in denaturing SDS-PAGE, and the gels are incubated in Amplify (NEN) for 1 h. Acetylations are detected in autoradiographies.
It was possible to show in GST pulldown analyses that the N- and C-terminal fragments of hsGRIM1 can associate directly with histones in vitro.

Compound: CC(C)(O)C(=O)Nc1ccc([N+](=O)[O-])c(C(F)(F)F)c1 [hydroxyflutamide]
- influence of AR antagonist on GRIM1-AR interaction [1]: cannot be influenced

Compound: mmGRIM1: mouse GRIM1, 750 amino acids, Seq. ID No. 4
- interaction with hsAR ([1]; tfIP, utfIP, yTHS, PD and tT): strong direct interaction

Compound: GST-E: GST-fused hsGRIM1 aa 3-147
- interaction with core histones [2]: marked interaction

Compound: O=S(=O)(c1cccc2cnccc12)N1CCCNCC1 [fasudil]
- effect on relocalization or number of nuclear speckles of GRIM1 [3]: no effect

Compound: Gal-E: hsGRIM1 aa 3-147 as Gal4-DBD fusion
- transcriptional repression [4]: 2 ×
- repression potential as Gal4-DBD fusion (in words) [4]: smallest repressive effect

Compound: GST-I: GST-fused hsGRIM1 aa 609-749
- interaction with core histones [2]: marked interaction
- interacted with the AR in pulldown ([1]; GST fragments, in the sequence M≧H>>I): interacted with the AR

Compound: O=c1cc(N2CCOCC2)oc2c(-c3ccccc3)cccc12 [LY294002]
- effect on relocalization or number of nuclear speckles of GRIM1 [3]: no effect

Compound: COc1cccc(-c2cc(=O)c3ccccc3o2)c1N [PD98059]
- effect on relocalization or number of nuclear speckles of GRIM1 [3]: no effect

Compound: CCCC(=O)[O-].[Na+] [sodium butyrate]
- effect of HDAC inhibitor on Gal-GRIM1 repression [4]: not impaired
- effect on relocalization or number of nuclear speckles of GRIM1 [3]: no effect

Compound: C[S+]([O-])c1ccc(-c2nc(-c3ccncc3)c(-c3ccc(F)cc3)[nH]2)cc1 (centres unmarked) [SB203580]
- effect on relocalization or number of nuclear speckles of GRIM1 [3]: no effect

Compound: CN(C)CCCn1cc(C2=C(c3c[nH]c4ccccc34)C(=O)NC2=O)c2ccccc21 [Gö6850]
- brought about a change in the transcriptional activity of Gal-GRIM1 ([4]; PKC inhibition or activation, various cell lines): Neither
- effect on relocalization or number of nuclear speckles of GRIM1 [3]: no effect

Compound: Gal-I: hsGRIM1 aa 609-749 as Gal4-DBD fusion (Table 8; Table 2 differs)
- transcriptional repression [4]: 2 ×
- repression potential as Gal4-DBD fusion (in words) [4]: smallest repressive effect

Compound: Cn1cc(C2=C(c3cn(CCCSC(=N)N)c4ccccc34)C(=O)NC2=O)c2ccccc21 [Ro31-8220]
- effect on relocalization or number of nuclear speckles of GRIM1 [3]: no effect

Compound: CCC(=C/[C@H](C)C/C=C/C(C)=C/[C@@H](C)C(=O)[C@@H](C)[C@H](O)[C@@H](C)C/C(C)=C/C(=O)O)/C=C/[C@@H]1OC(=O)C=C[C@@H]1C [leptomycin B]
- effect on nuclear export of GFP-GRIM1 or GFP-GRIM1 aa234-336 [5]: not influenced

Compound: CC(/C=C/C(=O)NO)=C\[C@@H](C)C(=O)c1ccc(N(C)C)cc1 [trichostatin A]
- effect on general transcription ([4]; cotransfection of full-length p300 and Gal-GRIM1): enhances general transcription
- effect of HDAC inhibitor on Gal-GRIM1 repression [4]: not impaired; also recorded: relative repression by Gal-GRIM1 remains unchanged; also recorded: not influenced
- effect on relocalization or number of nuclear speckles of GRIM1 [3]: no effect

Compound: GRIM1 aa 3-147: recombinantly expressed N-terminal hsGRIM1 fragment, tag not stated
- inhibition of histone acetylation by p300 (INHAT activity) [6]: efficiently blocks acetylation
